From ChEMBL document CHEMBL1137636, “Genetic characteristics and clonal dissemination of beta-lactamase-negative ampicillin-resistant Haemophilus influenzae strains isolated from the upper respiratory tract of patients in Japan” (2007)
≈ marks a conversion by molar mass, not a printed value.

Legend:
Type in all cases: functional
Haemophilus influenzae [1] = assay: Antibacterial activity against genetically beta-lactamase-negative ampicillin-susceptible Haemophilus influenzae type b without amino acid substitutions in ftsI gene and bla gene by broth microdilution method
Haemophilus influenzae [2] = assay: Antibacterial activity against genetically beta-lactamase-negative ampicillin-resistant Haemophilus influenzae type b with an amino acid substitution in variable mutated locus Asn-526 or Arg-517 of ftsI gene by broth microdilution method
Haemophilus influenzae [3] = assay: Antibacterial activity against genetically beta-lactamase-negative ampicillin-resistant Haemophilus influenzae type b with an amino acid substitution in highly mutated locus Ser-385 of ftsI gene by broth microdilution method
Haemophilus influenzae [4] = assay: Antibacterial activity against genetically beta-lactamase-negative ampicillin-susceptible Haemophilus influenzae type b without amino acid substitutions in ftsI gene and bla gene assessed as susceptibility rate by broth microdilution method
Haemophilus influenzae [5] = assay: Antibacterial activity against genetically beta-lactamase-negative ampicillin-resistant Haemophilus influenzae type b with an amino acid substitution in variable mutated locus Asn-526 or Arg-517 of ftsI gene assessed as susceptibility rate by broth microdilution method
Haemophilus influenzae [6] = assay: Antibacterial activity against genetically beta-lactamase-negative ampicillin-resistant Haemophilus influenzae type b with an amino acid substitution in highly mutated locus Ser-385 of ftsI gene assessed as susceptibility rate by broth microdilution method
Haemophilus influenzae [7] = assay: Antibacterial activity against genetically beta-lactamase-negative ampicillin-susceptible Haemophilus influenzae type b without amino acid substitutions in ftsI gene and bla gene assessed as resistance rate by broth microdilution method
Haemophilus influenzae [8] = assay: Antibacterial activity against genetically beta-lactamase-negative ampicillin-resistant Haemophilus influenzae type b with an amino acid substitution in variable mutated locus Asn-526 or Arg-517 of ftsI gene assessed as resistance rate by broth microdilution method
Haemophilus influenzae [9] = assay: Antibacterial activity against genetically beta-lactamase-negative ampicillin-resistant Haemophilus influenzae type b with an amino acid substitution in highly mutated locus Ser-385 of ftsI gene assessed as resistance rate by broth microdilution method
Haemophilus influenzae [10] = assay: Antibacterial activity against genetically beta-lactamase-positive amoxicillin-clavulanate-resistant Haemophilus influenzae type b with an amino acid substitution in highly mutated locus Ser-385 of ftsI gene by broth microdilution method
Haemophilus influenzae [11] = assay: Antibacterial activity against genetically beta-lactamase-positive amoxicillin-clavulanate-resistant Haemophilus influenzae type b with an amino acid substitution in variable mutated locus Asn-526 or Arg-517 of ftsI gene by broth microdilution method
Haemophilus influenzae [12] = assay: Antibacterial activity against genetically […] but without an amino acid substitution in ftsI gene by broth microdilution method
Haemophilus influenzae [13] = assay: Antibacterial activity against genetically beta-lactamase-positive amoxicillin-clavulanate-resistant Haemophilus influenzae type b with an amino acid substitution in variable mutated locus Asn-526 or Arg-517 of ftsI gene assessed as susceptibility rate by broth microdilution method
Haemophilus influenzae [14] = assay: Antibacterial activity against genetically beta-lactamase-positive amoxicillin-clavulanate-resistant Haemophilus influenzae type b with an amino acid substitution in highly mutated locus Ser-385 of ftsI gene assessed as susceptibility rate by broth microdilution method
Haemophilus influenzae [15] = assay: Antibacterial activity against genetically […] but without an amino acid substitution in ftsI gene assessed as susceptibility rate by broth microdilution method
Haemophilus influenzae [16] = assay: Antibacterial activity against genetically beta-lactamase-positive amoxicillin-clavulanate-resistant Haemophilus influenzae type b with an amino acid substitution in variable mutated locus Asn-526 or Arg-517 of ftsI gene assessed as resistance rate by broth microdilution method
Haemophilus influenzae [17] = assay: Antibacterial activity against genetically beta-lactamase-positive amoxicillin-clavulanate-resistant Haemophilus influenzae type b with an amino acid substitution in highly mutated locus Ser-385 of ftsI gene assessed as resistance rate by broth microdilution method
Haemophilus influenzae [18] = assay: Antibacterial activity against genetically […] but without an amino acid substitution in ftsI gene assessed as resistance rate by broth microdilution method
Haemophilus influenzae [19] = assay: Antibacterial activity against beta-lactamase-negative ampicillin-resistant Haemophilus influenzae by Etest
Haemophilus influenzae [20] = assay: Antibacterial activity against beta-lactamase-negative ampicillin-resistant Haemophilus influenzae with mutation in AcrAB repressor gene […]

SMILES | MIC50 (Haemophilus influenzae [1]) [µg/mL] | MIC90 (Haemophilus influenzae [1]) [µg/mL] | MIC50 (Haemophilus influenzae [2]) [µg/mL] | MIC90 (Haemophilus influenzae [2]) [µg/mL] | MIC50 (Haemophilus influenzae [3]) [µg/mL] | MIC90 (Haemophilus influenzae [3]) [µg/mL] | Activity (Haemophilus influenzae [4]) [%] | Activity (Haemophilus influenzae [5]) [%] | Activity (Haemophilus influenzae [6]) [%] | Activity (Haemophilus influenzae [7]) [%] | Activity (Haemophilus influenzae [8]) [%] | Activity (Haemophilus influenzae [9]) [%] | further results
C[C@H]1COc2c(N3CCN(C)CC3)c(F)cc3c(=O)c(C(=O)O)cn1c23.C[C@H]1COc2c(N3CCN(C)CC3)c(F)cc3c(=O)c(C(=O)O)cn1c23.O [LEVOFLOXACIN] | ≤ 0.06 | ≤ 0.06 | ≤ 0.06 | ≤ 0.06 | ≤ 0.06 | ≤ 0.06 | 100 | 100 | 100 | 0 | 0 | 0 | 
CO/N=C(\C(=O)N[C@@H]1C(=O)N2C(C(=O)OCOC(=O)C(C)(C)C)=C(/C=C\c3scnc3C)CS[C@H]12)c1csc(N)n1 [CEFDITOREN PIVOXIL] | ≤ 0.06 | ≤ 0.06 | ≤ 0.06 | 0.12 (≈ 0.193 µM) | 0.25 (≈ 0.403 µM) | 0.5 (≈ 0.805 µM) |  |  |  |  |  |  | 
CC[C@H]1OC(=O)[C@H](C)[C@@H](O[C@H]2C[C@@](C)(OC)[C@@H](O)[C@H](C)O2)[C@H](C)[C@@H](O[C@@H]2O[C@H](C)C[C@H](N(C)C)[C@H]2O)[C@](C)(OC)C[C@@H](C)C(=O)[C@H](C)[C@@H](O)[C@]1(C)O [CLARITHROMYCIN] | 8 (≈ 10.7 µM) | 16 (≈ 21.4 µM) | 8 (≈ 10.7 µM) | 16 (≈ 21.4 µM) | 8 (≈ 10.7 µM) | 16 (≈ 21.4 µM) | 79.3 | 75.5 | 60.8 | 3.5 | 2 | 0 | 
CC[C@H]1OC(=O)[C@H](C)C(=O)[C@H](C)[C@@H](O[C@@H]2O[C@H](C)C[C@H](N(C)C)[C@H]2O)[C@](C)(OC)C[C@@H](C)C(=O)[C@H](C)[C@H]2N(CCCCn3cnc(-c4cccnc4)c3)C(=O)O[C@]12C [TELITHROMYCIN] | 2 (≈ 2.46 µM) | 4 (≈ 4.93 µM) | 2 (≈ 2.46 µM) | 4 (≈ 4.93 µM) | 2 (≈ 2.46 µM) | 4 (≈ 4.93 µM) | 97.7 | 93.9 | 87.8 | 0 | 0 | 0 | 
COCC1=C(C(=O)O)N2C(=O)[C@@H](NC(=O)/C(=N\OC)c3csc(N)n3)[C@H]2SC1 [CEFPODOXIME] | 0.12 (≈ 0.281 µM) | 0.12 (≈ 0.281 µM) | 0.25 (≈ 0.585 µM) | 2 (≈ 4.68 µM) | 8 (≈ 18.7 µM) | 16 (≈ 37.4 µM) | 100 | 90.8 | 9.1 | 0 | 9.2 | 91.9 | 
CC1(C)S[C@@H]2[C@H](NC(=O)[C@H](N)c3ccccc3)C(=O)N2[C@H]1C(=O)O [AMPICILLIN] | 0.5 (≈ 1.43 µM) | 0.5 (≈ 1.43 µM) | 0.5 (≈ 1.43 µM) | 2 (≈ 5.72 µM) | 4 (≈ 11.4 µM) | 16 (≈ 45.8 µM) | 100 | 68.4 | 9.5 | 0 | 8.1 | 71.6 | MIC50 (Haemophilus influenzae [10]): > 128 µg/mL; MIC90 (Haemophilus influenzae [10]): > 128 µg/mL; MIC50 (Haemophilus influenzae [11]): 128 µg/mL; MIC90 (Haemophilus influenzae [11]): 128 µg/mL; MIC50 (Haemophilus influenzae [12]): 64 µg/mL (≈ 183 µM); MIC90 (Haemophilus influenzae [12]): > 128 µg/mL; Activity (Haemophilus influenzae [13]): 0%; Activity (Haemophilus influenzae [14]): 0%; Activity (Haemophilus influenzae [15]): 0%; Activity (Haemophilus influenzae [16]): 100%; Activity (Haemophilus influenzae [17]): 100%; Activity (Haemophilus influenzae [18]): 100%; MIC (Haemophilus influenzae [19]): 256 µg/mL (≈ 733 µM); MIC (Haemophilus influenzae [20]): 8 µg/mL (≈ 22.9 µM)
C[C@@H](O)[C@H]1C(=O)N2C(C(=O)O)=C(S[C@@H]3CN[C@H](C(=O)N(C)C)C3)[C@H](C)[C@H]12 [MEROPENEM] | ≤ 0.06 | ≤ 0.06 | 0.12 (≈ 0.313 µM) | 0.25 (≈ 0.652 µM) | 0.25 (≈ 0.652 µM) | 0.5 (≈ 1.3 µM) | 100 | 100 | 90.5 | 0 | 0 | 9.5 | 
CC[C@H]1OC(=O)[C@H](C)[C@@H](O[C@H]2C[C@@](C)(OC)[C@@H](O)[C@H](C)O2)[C@H](C)[C@@H](O[C@@H]2O[C@H](C)C[C@H](N(C)C)[C@H]2O)[C@](C)(O)C[C@@H](C)CN(C)[C@H](C)[C@@H](O)[C@]1(C)O [AZITHROMYCIN] | 2 (≈ 2.67 µM) | 4 (≈ 5.34 µM) | 2 (≈ 2.67 µM) | 4 (≈ 5.34 µM) | 2 (≈ 2.67 µM) | 4 (≈ 5.34 µM) | 98.8 | 95.9 | 97.3 | 1.2 | 4.1 | 2.7 | 
CO/N=C(\C(=O)N[C@@H]1C(=O)N2C(C(=O)O)=C(COC(N)=O)CS[C@H]12)c1ccco1 [CEFUROXIME] | 1 (≈ 2.36 µM) | 2 (≈ 4.71 µM) | 2 (≈ 4.71 µM) | 16 (≈ 37.7 µM) | 64 (≈ 151 µM) | 128 (≈ 302 µM) | 97.7 | 66.3 | 1.4 | 1.2 | 21.4 | 94.6 | 
